Test results published in patent US9518038B2, “Condensation product of theanine derivative and carboxylic acid coumarin derivative, its intermediate, preparation method and use thereof” (SHANDONG YINGDONG YINGHAO BIOTECHNOLOGY, INC., priority 2012, dated 2016).

How the values were obtained:
[1] = tested on: human breast cancer cells MCF-7 xenograft; assay: In-vivo growth of MCF-7 xenografts in nude mice; parameters: species or system BALB/c nude mice; settings: Mus musculus, MCF7, ip, vs DMSO solvent control, read-out: Curative effect (inhibition rate %) of tumor weight; for inhibition in vivo at 60 mg/kg: 60 mg/kg intraperitoneal once a day; for inhibition in vivo at 90 mg/kg: 90 mg/kg intraperitoneal once a day
Protocol: (§1) RPMI1640 and DMEM culture solutions: Hyclone Company; inactivated fetal bovine serum: Hyclone Company, preserved at −20° C.; trypsin: Amersco Company; and 0.4% trypan blue: Sigma Company;
(§2) (3) Observation of growth of tumors in nude mice: the activities (including food intake, traits of urine and stool, mental state and the like) of the nude mice and the tumor growth time and growth situation of the transplanted tumors were observed every day, the body weight and the size of the tumors were measured once every 2-3 days. The long diameter a and the short diameter b (mm) of each tumor were measured by a vernier caliper to calculate the volume, wherein the volume V=π1/2·ab^2 (mm^3);
(§3) (4) sacrifice of animals: the mice were anesthetized and photoed after treatment experiments; the nude mice were sacrificed by breaking neck, the tumor tissues were stripped under sterile conditions and the weight of the tumors was weighed; and the effects of the drugs on pathology and toxicity of the various organs and tissues were detected.

[2] = tested on: human breast cancer cells MCF-7; assay: MTT growth inhibition, MCF-7 cells; type: cell-based; settings: MCF7, 72 h after treatment, read-out: Drug concentration (IC50) at which 50% cancer cells survived
Source text: (§4) Cell lines and cell culture: human lung cancer cells A549 and H460, human breast cancer cells MCF-7 and MDA-MB-231, human gastric cancer cells BGC-823, human prostate cancer cells PC-3, human chronic leukemia cells K562, human lymphoma cells U937, human liver cancer cells SMMC7721 and HepG2, human colon cancer cells HT29, human pancreatic cancer cells PANC-1 and BxPC3, human cervical cancer Hela cell lines, human brain tumor cells Daoy, human neuroma cells D54 and human oral epidermoid cancer cells KBV200 line with strong drug resistance, mouse melanoma cells B16, and highly metastatic Lewis lung cancer cell lines were purchased from American Type Culture Collection of the U.S. These cells were cultured with DMEM and RPMI-1640 culture solutions separately.
(§5) The procedure was as follows:
(§6) (1) 0.25% trypsin was used to digest cancer cells in a logarithmic growth phase to prepare a single-cell suspension, the concentration of cells was adjusted to 5×10^4/mL, and the adjusted suspension was inoculated into a 96-well culture plate with 100 μl per well;
(§7) (2) The culture plate was transferred into a 37° C. incubator with a saturated humidity and 5% of CO2 and cultured for 24 h; the compounds and the intermediates thereof obtained in embodiments 1-7 and the compound as represented by formula (IIIa) or the positive control anti-cancer drug with the concentration of 1-1000 μM/L were added to enable the final concentration to be 0.1-1500 μM/L. Control wells (only added with 200 μl of cell suspension) and drug-free blank control wells (containing the solvent of 0.01% DMSO) were set, each group included 8 wells, and the plate was placed into the 37° C. incubator with saturated humidity and 5% of CO2 for culturing;
(§8) (3) The 96-well plate was taken out at 48 h and 72 h after dosing, the original culture medium was carefully removed by suction, 100 μl of serum-free DMEM culture medium and 10 μl of MTT (5 mg/mL) solution were added in each well. The plate was continuously cultured for another 4 h and then the culture was terminated;
(§9) (4) The supernatant in the wells was carefully removed by suction, each well was added with 150 μl of DMSO and shaked at room temperature for 10-15 min to fully dissolve crystals.
(§10) (5) Colorimetric analysis: the wavelength was selected as 570 nm, the light absorbance (A value) of each well was determined on the microplate reader and the results were recorded; the experiment was repeated for three times;
(§11) (6) the experimental results were calculated according to the following formula: relative survival rate=(A value of each experimental group/A value of cell control group)×100%
(§12) Calculation of median-effect concentration (IC50, namely the drug concentration at which the inhibition rate is 50%, also known as half inhibitory concentration):
(§13) IC50 of the detected component was calculated by using a regression equation.

[3] = tested on: human lung cancer cells A549 xenograft; assay: In-vivo growth of A549 xenografts in nude mice; parameters: species or system BALB/c nude mice; settings: Mus musculus, ip, vs DMSO solvent control, read-out: Curative effect (inhibition rate %) of tumor weight; for inhibition in vivo at 60 mg/kg: 60 mg/kg intraperitoneal once a day; for inhibition in vivo at 90 mg/kg: 90 mg/kg intraperitoneal once a day
Protocol: as §1, §2, §3

[4] = tested on: human liver cancer cells SMMC7721; assay: MTT growth inhibition, SMMC7721 cells; type: cell-based; settings: SMMC-7721, S-7721 (SMMC7721), 72 h after treatment, read-out: Drug concentration (IC50) at which 50% cancer cells survived
Source text: as §4, §5, §6, §7, §8, §9, §10, §11, §12, §13

[5] = tested on: human chronic leukemia cells K562; assay: MTT growth inhibition, K562 cells; type: cell-based; settings: 72 h after treatment, read-out: Drug concentration (IC50) at which 50% cancer cells survived
Source text: as §4, §5, §6, §7, §8, §9, §10, §11, §12, §13

c-Met = assay: Western Blotting, c-Met level; type: cell-based; settings: human liver cancer cells, Lewis lung cancer cells and other cancer cell lines and tumor tissues, read-out: Effective concentration (IC50) for inhibition of c-Met
Source text: (§14) Antibodies: primary antibodies of VEGFR, EGFR, c-Met, K-Ras, H-Ras, Akt, NF-κB, Cyclin D1, ER-alpha, Dvl-1, Dvl-2, Dvl-3, MMP-9, MMP2, β-catenin, Bcl-2, Bax, p53, p21, E-cadherin and Caspase3 protein, purchased from American Cell Signaling Technology Company and Santa Cruz Technology Company; and H3 acetylation, H4 acetylation and HDAC (HDAC3, HDAC4 and the like) Antibody Sample Kits, purchased from Cell Signaling Technology Company of the U.S.
(§15) (3) polyacrylamide gel electrophoresis (SDS-PAGE): an equal amount of protein lysate sample was used to separate protein, film transfer, and blocking, treated with appropriate primary antibodies and secondary antibodies in sequence, and the film was washed, then the color was developed with ECL kit, and a blot protein band was detected by exposure of an X-ray film; and a Gel-Pro Analyzer was used for quantitative analysis of gray degree, optical density value of the control group and the drug treatment group in various concentration were respectively compared with that of internal reference, the obtained ratios were respectively compared with the control group, and the protein expression level was semi-quantified.

Nuclear β-catenin = assay: Western Blotting, nuclear β-catenin level; type: cell-based; settings: human liver cancer cells, Lewis lung cancer cells and other cancer cell lines and tumor tissues, read-out: Effective concentration (IC50) for inhibition of Nuclear β-catenin
Source text: as §14, §15

[6] = tested on: Lewis lung cancer (highly metastatic mouse lung cancer) cells; assay: Mouse Lewis lung cancer metastasis model; type: in vivo, C57/BL6J black mice; settings: Lewis lung carcinoma, ip, LLC, vs DMSO solvent control, read-out: tumor lung metastasis inhibition rate % of mouse Lewis lung cancer; for inhibition in vivo at 60 mg/kg: 60 mg/kg intraperitoneal once a day; for inhibition in vivo at 90 mg/kg: 90 mg/kg intraperitoneal once a day
Protocol: as §1, §3

Bcl-2/Bax = assay: Western Blotting, Bcl-2/Bax level; type: cell-based; settings: human liver cancer cells, Lewis lung cancer cells and other cancer cell lines and tumor tissues, read-out: Effective concentration (IC50) for inhibition of Bcl-2/Bax
Source text: as §14, §15

[7] = tested on: human breast cancer cells MDA-MB-231; assay: MTT growth inhibition, MDA-MB-231 cells; type: cell-based; settings: 72 h after treatment, read-out: Drug concentration (IC50) at which 50% cancer cells survived
Source text: as §4, §5, §6, §7, §8, §9, §10, §11, §12, §13

[8] = tested on: Caski human cervical cancer cells; assay: MTT growth inhibition, Caski cells; type: cell-based; settings: Ca-Ski, 72 h after treatment, read-out: Drug concentration (IC50) at which 50% cancer cells survived

| SMILES | inhibition in vivo at 60 mg/kg [1] | inhibition in vivo at 90 mg/kg [1] | IC50 [2] | inhibition in vivo at 60 mg/kg [3] | inhibition in vivo at 90 mg/kg [3] | IC50 [4] | IC50 [5] | IC50 (c-Met) | IC50 (Nuclear β-catenin) | inhibition in vivo at 60 mg/kg [6] | inhibition in vivo at 90 mg/kg [6] | IC50 (Bcl-2/Bax) | IC50 [7] | IC50 [8] |
| --- | --- | --- | --- | --- | --- | --- | --- | --- | --- | --- | --- | --- | --- | --- |
| CCNC(=O)CCC(NC(=O)c1cc2cc([N+](=O)[O-])ccc2oc1=O)C(=O)OCC (stereo in doubt) [Compound If, (R)-2-(6-nitro-2-oxo-2H-benzopyran-3-carboxamido)-5-ethylamino-5-oxo-pentanoic acid ethyl ester] | 68.6% | 72.6% | 112 µM | 58.6% | 64.6% | 61 µM | 91 µM | < 141 µM | < 90 µM | 67.5% | 75.8% | < 90 µM | 110 µM | 120 µM |
| CCNC(=O)CC[C@@H](NC(=O)c1cc2cc(Br)ccc2oc1=O)C(=O)OCC [Compound Id, (R)-2-(6-Br-2-oxo-2H-benzopyran-3-carboxamido)-5-ethylamino-5-oxo-pentanoic acid ethyl ester] | 56.6% | 66.9% | 102 µM | 63.6% | 69.6% | 65 µM | 125 µM | < 150 µM | < 100 µM | 69.2% | 82.5% | < 100 µM | 91 µM | 101 µM |
| CCNC(=O)CC[C@@H](NC(=O)c1cc2cc(Cl)ccc2oc1=O)C(=O)OCC [Compound Ic, (R)-2-(6-CI-2-oxo-2H-benzopyran-3-carboxamido)-5-ethylamino-5-oxo-pentanoic acid ethyl ester] | 58.6% | 68.8% | 95 µM | 61.6% | 67.6% | 75 µM | 105 µM |  | < 100 µM | 74.2% | 79.2% | < 100 µM | 87 µM | 86 µM |
| CCNC(=O)CCC(NC(=O)c1cc2ccccc2oc1=O)C(=O)OCC (stereo not drawn) [Compound Ib, ethyl 5-ethylamino-5-oxo-2-(2-oxo-2H-benzopyran-3-carboxamido)pentanoate] | 52.6% | 63.8% | 103 µM | 53.6% | 60.6% | 17 µM | 150 µM | < 155 µM | < 120 µM | 58.2% | 69.6% | < 120 µM | 109 µM | 116 µM |
| CCNC(=O)CCC(NC(=O)c1cc2ccccc2oc1=O)C(=O)OC (stereo not drawn) [Compound Ia, methyl 5-ethylamino-5-oxo-2-(2-oxo-2H-benzopyran-3-carboxamido)pentanoate] | 50.1% | 61.3% | 220 µM | 48.6% | 51.6% | 75 ± 30 µM | 248 µM | < 160 µM | < 120 µM | 55.4% | 60.9% | < 125 µM | 240 µM | 210 µM |
| CCNC(=O)CCC(NC(=O)c1cc2cc(F)ccc2oc1=O)C(=O)OCC (stereo in doubt) [Compound Ie, (R)-2-(6-F-2-oxo-2H-benzopyran-3-carboxamido)-5-ethylamino-5-oxo-pentanoic acid ethyl ester] | 66.8% | 69.8% | 115 µM | 55.5% | 61.5% | 61 µM | 130 µM | < 145 µM | < 65 µM | 61.6% | 70.8% | < 180 µM | 90 µM | 230 µM |
| CCNC(=O)CC[C@H](N)C(=O)OC [Compound IIa, theanine methyl ester] | 39.8% | 41.3% | 450 µM | 29.6% | 31.7% | 230 µM | 350 µM |  |  | 36.8% | 38.5% |  | 480 µM | 320 µM |
| CCNC(=O)CC[C@H](N)C(=O)OCC [Compound IIb, theanine ethyl ester] | 43.2% | 46.8% | 300 µM | 33.3% | 38.6% | 400 µM | 600 µM |  |  | 52.3% | 54.7% |  | 400 µM | 300 µM |
